Laboratory results: ChEMBL document CHEMBL1148482, “Novel benzophenones as non-nucleoside reverse transcriptase inhibitors of HIV-1” (J Med Chem, 2004)

Assays:
[1] = tested on: Human immunodeficiency virus 1; assay: Antiviral activity against Y188C strain of HIV-1; assay type: functional, organism-based
[2] = tested on: Human immunodeficiency virus 1; assay: Antiviral activity against wild-type HIV-1; assay type: functional, organism-based
[3] = tested on: Human immunodeficiency virus 1; assay: Antiviral activity against E138K strain of HIV-1; assay type: functional, organism-based
[4] = tested on: Human immunodeficiency virus 1; assay: Antiviral activity against G190A strain of HIV-1; assay type: functional, organism-based
[5] = tested on: Human immunodeficiency virus 1; assay: Antiviral activity against K101E strain of HIV-1; assay type: functional, organism-based
[6] = tested on: Human immunodeficiency virus 1; assay: Antiviral activity against K103N strain of HIV-1; assay type: functional, organism-based
[7] = tested on: Human immunodeficiency virus 1; assay: Antiviral activity against K103N/G190A strain of HIV-1; assay type: functional, organism-based
[8] = tested on: Human immunodeficiency virus 1; assay: Antiviral activity against K103N/L100I strain of HIV-1; assay type: functional, organism-based
[9] = tested on: Human immunodeficiency virus 1; assay: Antiviral activity against K103N/P225H strain of HIV-1; assay type: functional, organism-based
[10] = tested on: Human immunodeficiency virus 1; assay: Antiviral activity against K103N/V108I strain of HIV-1; assay type: functional, organism-based
[11] = tested on: Human immunodeficiency virus 1; assay: Antiviral activity against K103N/Y181C strain of HIV-1; assay type: functional, organism-based
[12] = tested on: Human immunodeficiency virus 1; assay: Antiviral activity against P225H strain of HIV-1; assay type: functional, organism-based
[13] = tested on: Human immunodeficiency virus 1; assay: Antiviral activity against P236L strain of HIV-1; assay type: functional, organism-based
[14] = tested on: Human immunodeficiency virus 1; assay: Antiviral activity against V106A strain of HIV-1; assay type: functional, organism-based
[15] = tested on: Human immunodeficiency virus 1; assay: Antiviral activity against V106A/Y181C strain of HIV-1; assay type: functional, organism-based
[16] = tested on: Human immunodeficiency virus 1; assay: Antiviral activity against V106I strain of HIV-1; assay type: functional, organism-based
[17] = tested on: Human immunodeficiency virus 1; assay: Antiviral activity against V106I/Y181C strain of HIV-1; assay type: functional, organism-based
[18] = tested on: Human immunodeficiency virus 1; assay: Antiviral activity against V108I strain of HIV-1; assay type: functional, organism-based
[19] = tested on: Human immunodeficiency virus 1; assay: Antiviral activity against V108I/Y181C strain of HIV-1; assay type: functional, organism-based
[20] = tested on: Human immunodeficiency virus 1; assay: Antiviral activity against Y181C strain of HIV-1; assay type: functional, organism-based
MT4 [21] = assay: Antiviral activity against MT-4 cells infected with Nev-R strain of HIV-1; settings: Homo sapiens
MT4 [22] = assay: Antiviral activity against MT-4 cells infected with wild-type HIV-1; settings: Homo sapiens
[23] = tested on: Human immunodeficiency virus 1; assay: Antiviral activity against L100I strain of HIV-1; assay type: functional, organism-based

`Cc1ccnc2c1NC(=O)c1cccnc1N2C1CC1` [NEVIRAPINE] gave an IC50 [1] of 2300 nM, an IC50 [2] of 100 nM and an IC50 [3] of 65 nM. The IC50 [4] was greater than 10000 nM, the IC50 [5] was 520 nM and the IC50 [6] was 6600 nM. For the same compound, the IC50 [7] was greater than 10000 nM, the IC50 [8] was 8000 nM and the IC50 [9] was 9800 nM. The IC50 [10] was 15000 nM, the IC50 [11] was greater than 10000 nM and the IC50 [12] was 1200 nM. It also gave an IC50 [13] of 56 nM, an IC50 [14] of 9000 nM and an IC50 [15] greater than 10000 nM. The IC50 [16] was 150 nM, the IC50 [17] was greater than 10000 nM and the IC50 [18] was 290 nM. For the same compound, the IC50 [19] was greater than 10000 nM, the IC50 [20] was 9400 nM and the IC50 (MT4 [21]) was 17200 nM. It also gave an IC50 (MT4 [22]) of 96 nM and an IC50 [23] of 500 nM.

Work on `O=C1Nc2ccc(Cl)cc2[C@@](C#CC2CC2)(C(F)(F)F)O1` [EFAVIRENZ] yielded an IC50 (MT4 [21]) of 2.7 nM and an IC50 (MT4 [22]) of 3.5 nM.

`CC(C)Nc1cccnc1N1CCN(C(=O)c2cc3cc(NS(C)(=O)=O)ccc3[nH]2)CC1` [DELAVIRDINE] showed an IC50 [1] of 170 nM, an IC50 [2] of 200 nM and an IC50 [3] of 10 nM. It also gave an IC50 [4] of 35 nM, an IC50 [5] of 29 nM and an IC50 [6] of 2700 nM. The IC50 [7] was 2700 nM, the IC50 [8] was greater than 8400 nM and the IC50 [9] was 2300 nM. For the same compound, the IC50 [10] was 3500 nM, the IC50 [11] was greater than 8400 nM and the IC50 [12] was 11 nM. It also gave an IC50 [13] of 1600 nM, an IC50 [14] of 900 nM and an IC50 [15] greater than 10000 nM. It also gave an IC50 ([16]; read-out: IC50) of 55 nM, an IC50 [17] of 4500 nM and an IC50 [18] of 78 nM. It also gave an IC50 [19] greater than 10000 nM, an IC50 [20] of 2300 nM and an IC50 (MT4 [21]) of 2400 nM. The IC50 (MT4 [22]) was 160 nM and the IC50 [23] was 920 nM.
